The test system of series [1] is Rat Retinal Ischemia Reperfusion Model. As to the kind of experiment: Protecting effect of retinal nerve in rat retinal ischemia reperfusion model (electroretinogram measurement). The format is in vivo. The note with it: SD rats, 30 min retinal ischemia; 10 mg/kg orally twice a day for 14 days from 2 days after reperfusion; ERG about 1 hour after final administration; distilled water control group 35%. The method, then:
A rat retinal ischemia reperfusion model was prepared by a partially modified method of Steven Roth et al. (Experimental Eye Research, Vol. 65, pp. 771-779, 1997).
As experimental animals, SD rats (SPF, 9-week-old, male, approximately 300 g of body weight) were used. Such rats were anesthetized with halothane (introduction: 4%; retention: 2%; gas composition: 70% air+30% oxygen; gas flow rate: 2 L/min). The rat was placed on a fixing plate with the left body side upward. The skin located between the external acoustic foramen and the external canthus on the left side was incised, and the skin-incised portion was held with a hook. The temporal muscle was burned out with a bipolar coagulator (output: 4.5 W), and it was detached from the cranial bone and the mandibular arch. […]
ERG was measured in accordance with the method of Kawakami et al. (Gifu-dai Iki, Vol. 48, pp. 166-175, 2000). […] The obtained waveform was swept on a memory oscilloscope and then recorded by a thermal array recorder. […] ERG of the ischemic eye was evaluated as a ratio to the value of normal control eye. ERG was measured after adaptation to darkness at 2 days after retinal ischemia reperfusion, and at approximately 1 hour after the final administration.

Consider two compounds from patent US8067406B2, “Preventive/remedy for retinal nerve diseases containing alkyl ether derivatives or salts thereof” (Toyama Chemical Co., Ltd., priority 2003, dated 2011).

By melting point is commonly meant the temperature of the solid-liquid transition.

In the case of `O=C(O)/C=C\C(=O)O.OC1CN(CCCOCCc2ccc3sccc3c2)C1` [1-(3-(2-(1-benzothiophene-5-yl)ethoxy)propyl)-3-azetidinol maleate], the “ratio of the ERG amplitude value of the ischemic eye to the normal control eye” value in series [1] is 65%.
`Cl.OC1CN(CCOCCc2ccc3sccc3c2)C1`: the melting point was 101 to 102 °C.
